Source: patent US12195482B1 (Arcus Biosciences, Inc., priority 2022, dated 2025)

Key:
Axl = target: T1, Axl (Homo sapiens, UniProt P30530); assay: Biochemical potency, HTRF KinEASE-TK kinase assay; design: purchased Invitrogen; settings: 5 nM AXL, 700 μM ATP
T1 sequence (P30530 26-894): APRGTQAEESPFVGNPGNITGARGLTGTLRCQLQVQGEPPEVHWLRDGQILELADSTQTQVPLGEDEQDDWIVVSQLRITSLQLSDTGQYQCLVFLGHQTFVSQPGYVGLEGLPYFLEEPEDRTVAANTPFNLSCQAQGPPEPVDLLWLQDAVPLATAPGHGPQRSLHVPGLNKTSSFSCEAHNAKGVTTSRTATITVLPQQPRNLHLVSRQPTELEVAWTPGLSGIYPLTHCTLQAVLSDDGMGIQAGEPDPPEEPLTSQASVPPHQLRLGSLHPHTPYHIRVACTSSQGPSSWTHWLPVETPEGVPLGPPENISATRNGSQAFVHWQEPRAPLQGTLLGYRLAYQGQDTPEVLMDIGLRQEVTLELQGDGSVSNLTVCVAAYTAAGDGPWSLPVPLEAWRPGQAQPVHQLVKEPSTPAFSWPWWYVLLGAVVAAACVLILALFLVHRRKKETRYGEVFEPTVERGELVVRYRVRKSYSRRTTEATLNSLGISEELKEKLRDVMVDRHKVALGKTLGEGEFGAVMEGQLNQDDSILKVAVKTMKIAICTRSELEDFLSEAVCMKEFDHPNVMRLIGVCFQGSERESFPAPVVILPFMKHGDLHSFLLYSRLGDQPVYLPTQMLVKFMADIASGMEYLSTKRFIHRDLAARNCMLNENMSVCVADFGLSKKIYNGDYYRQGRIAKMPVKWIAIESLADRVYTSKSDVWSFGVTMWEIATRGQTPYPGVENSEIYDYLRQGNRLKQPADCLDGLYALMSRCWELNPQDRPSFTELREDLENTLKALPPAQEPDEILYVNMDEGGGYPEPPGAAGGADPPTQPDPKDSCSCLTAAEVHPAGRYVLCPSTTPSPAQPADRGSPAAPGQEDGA
In short: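 Enzyme (AXL 5 nM; TYRO3 or MER 1 nM final) was preincubated with compound for 1 h at RT, then reacted for 2 h at RT with 800 nM biotinylated TK substrate and 700 µM ATP in HEPES pH 7.4, MgCl2, DTT, BSA, 1% DMSO. Percent activity came from the HTRF 665/620 ratio.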

p-AXL = target: T2, p-AXL (Homo sapiens, UniProt P30530); assay: Axl phosphorylation inhibition ELISA in HEK293T cells transfected with NanoLuc-tagged AXL; assay type: cell-based; settings: 1 h compound incubation, media (OptiMEM)
T2 construct: expressed in transfected cells; host or cells: HEK293T
T2 sequence (P30530 26-894): T1 sequence (P30530 26-894)
In short: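 Phospho-AXL detected by luminescence of NanoLuc tag after capture of cell lysate on biotinylated anti-phospho-tyrosine mAb plates (2 h). Lysates came from transiently transfected HEK293T cells treated 1 h at 37° C with serial 2-fold dilutions (22 points). IC50 by standard 4-parameter logistic fitting.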

| SMILES | IC50 (Axl) [nM] | IC50 (p-AXL) [nM] |
| --- | --- | --- |
| Cc1cccnc1-c1ccc(-c2n[nH]c3ncc(-c4ccc5c(c4)CC[C@@H](N4C[C@@H]6C[C@H]4CO6)CC5)cc23)cc1 [Example 130, (1S,4S)-5-[(7S)-2-{3-[4-(3-Methylpyridin-2-yl)phenyl]-1H-pyrazolo[3,4-b]pyridin-5-yl}-6,7,8,9-tetrahydro-5H-benzo[7]annulen-7-yl]-2-oxa-5-azabicyclo[2.2.1]heptane] | < 100 | < 100 |
| C[C@H]1COC(=O)N1c1cccnc1-c1ccc(-c2n[nH]c3ncc(-c4ccc5c(c4)CC[C@@H](N4C6COCC4C6)CC5)cc23)cc1 [Example 125, (4S)-4-Methyl-3-[2-(4-{5-[(7S)-7-{3-oxa-6-azabicyclo[3.1.1]heptan-6-yl}-6,7,8,9-tetrahydro-5H-benzo[7]annulen-2-yl]-1H-pyrazolo[3,4-b]pyridin-3-yl}phenyl)pyridin-3-yl]-1,3-oxazolidin-2-one] | < 100 | < 100 |
| Cn1cnnc1-c1ccc(-c2n[nH]c3ncc(-c4ccc5c(c4)CC[C@@H](N4C6COCC4C6)CC5)cc23)cc1 [Example 169, 6-[(7S)-2-{3-[4-(4-Methyl-4H-1,2,4-triazol-3-yl)phenyl]-1H-pyrazolo[3,4-b]pyridin-5-yl}-6,7,8,9-tetrahydro-5H-benzo[7]annulen-7-yl]-3-oxa-6-azabicyclo[3.1.1]heptane] | < 100 | < 100 |
| C[C@@H]1COC(=O)N1c1cccnc1-c1ccc(-c2n[nH]c3ncc(-c4ccc5c(c4)CC[C@@H](N4C6COCC4C6)CC5)cc23)cc1 [Example 124, (4R)-4-Methyl-3-[2-(4-{5-[(7S)-7-{3-oxa-6-azabicyclo[3.1.1]heptan-6-yl}-6,7,8,9-tetrahydro-5H-benzo[7]annulen-2-yl]-1H-pyrazolo[3,4-b]pyridin-3-yl}phenyl)pyridin-3-yl]-1,3-oxazolidin-2-one] | < 100 | < 100 |
| c1cnc(-c2ccc(-c3c[nH]c4ncc(-c5ccc6c(c5)CC[C@@H](N5C7COCC5C7)CC6)cc34)cc2)c(C2CC2)c1 [Example 178, 6-[(7S)-2-{3-[4-(3-Cyclopropylpyridin-2-yl)phenyl]-1H-pyrrolo[2,3-b]pyridin-5-yl}-6,7,8,9-tetrahydro-5H-benzo[7]annulen-7-yl]-3-oxa-6-azabicyclo[3.1.1]heptane] | < 100 | < 100 |
| c1cnc(-c2ccc(-c3c[nH]c4ncc(-c5ccc6c(c5)CC[C@@H](N5C7COCC5C7)CC6)cc34)cc2)c(N2CCOCC2)c1 [Example 5, 6-[(7S)-2-(3-{4-[3-(Morpholin-4-yl)pyridin-2-yl]phenyl}-1H-pyrrolo[2,3-b]pyridin-5-yl)-6,7,8,9-tetrahydro-5H-benzo[7]annulen-7-yl]-3-oxa-6-azabicyclo[3.1.1]heptane] | < 100 | < 100 |

Next, values leading:

| IC50 (Axl) [nM] | IC50 (p-AXL) [nM] | SMILES |
| --- | --- | --- |
| < 100 | < 100 | c1cnc(-c2ccc(-c3n[nH]c4ncc(-c5ccc6c(c5)CC[C@@H](N5C7COCC5C7)CC6)cc34)cc2)c(O[C@@H]2CCOC2)c1 [Example 104, 6-[(7S)-2-[3-(4-{3-[(3R)—Oxolan-3-yloxy]pyridin-2-yl}phenyl)-1H-pyrazolo[3,4-b]pyridin-5-yl]-6,7,8,9-tetrahydro-5H-benzo[7]annulen-7-yl]-3-oxa-6-azabicyclo[3.1.1]heptane] |
| < 100 | < 100 | COCCOc1cccnc1-c1ccc(-c2n[nH]c3ncc(-c4ccc5c(c4)CC[C@@H](N4C6COCC4C6)CC5)cc23)cc1 [Example 180, 6-[(7S)-2-(3-{4-[3-(2-Methoxyethoxy)pyridin-2-yl]phenyl}-1H-pyrazolo[3,4-b]pyridin-5-yl)-6,7,8,9-tetrahydro-5H-benzo[7]annulen-7-yl]-3-oxa-6-azabicyclo[3.1.1]heptane] |
| < 100 | < 100 | FC(F)Oc1cccnc1-c1ccc(-c2n[nH]c3ncc(-c4ccc5c(c4)CC[C@@H](N4C6COCC4C6)CC5)cc23)cc1 [Example 99, 6-[(7S)-2-(3-{4-[3-(Difluoromethoxy)pyridin-2-yl]phenyl}-1H-pyrazolo[3,4-b]pyridin-5-yl)-6,7,8,9-tetrahydro-5H-benzo[7]annulen-7-yl]-3-oxa-6-azabicyclo[3.1.1]heptane] |
